Test results taken from paper PMC11872117, “Inhibitory effects of Kratom constituents, mitragynine and 7-hydroxymitragynine, on 4-methylumbelliferone glucuronidation by human UDP-glucuronosyltransferases” (Toxicology Reports, 2025).

What was measured:
Type in all cases: biochemical
UGT2B7 = biological target: T1, UGT2B7 (Homo sapiens, UniProt P16662); experiment: 4MU glucuronidation, HPLC of 4MUG
T1 construct: Supersome recombinant human enzyme (Corning), microsomal preparation
T1 sequence (P16662 24-529): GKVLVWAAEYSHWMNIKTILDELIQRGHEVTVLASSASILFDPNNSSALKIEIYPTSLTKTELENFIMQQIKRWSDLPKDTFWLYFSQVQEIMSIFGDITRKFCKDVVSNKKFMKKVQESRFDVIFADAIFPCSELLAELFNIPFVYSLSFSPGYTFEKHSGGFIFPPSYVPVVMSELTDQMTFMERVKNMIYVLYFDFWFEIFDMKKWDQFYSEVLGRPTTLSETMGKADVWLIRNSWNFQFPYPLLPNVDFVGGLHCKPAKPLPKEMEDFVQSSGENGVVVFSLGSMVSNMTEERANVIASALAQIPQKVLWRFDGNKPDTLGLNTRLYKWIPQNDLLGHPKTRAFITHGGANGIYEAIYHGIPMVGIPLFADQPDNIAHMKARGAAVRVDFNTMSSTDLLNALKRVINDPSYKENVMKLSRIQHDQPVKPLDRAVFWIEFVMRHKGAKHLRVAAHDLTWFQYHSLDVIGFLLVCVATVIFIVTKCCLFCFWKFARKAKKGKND
From the text: 4MU glucuronidation, HPLC of 4MUG on UGT2B7

UGT1A9 [1] = biological target: T2, UGT1A9 (Homo sapiens, UniProt O60656); experiment: 4MU glucuronidation, HPLC of 4MUG, Dixon plot
T2 construct: Supersome recombinant human enzyme (Corning), microsomal preparation
T2 sequence (O60656 26-530): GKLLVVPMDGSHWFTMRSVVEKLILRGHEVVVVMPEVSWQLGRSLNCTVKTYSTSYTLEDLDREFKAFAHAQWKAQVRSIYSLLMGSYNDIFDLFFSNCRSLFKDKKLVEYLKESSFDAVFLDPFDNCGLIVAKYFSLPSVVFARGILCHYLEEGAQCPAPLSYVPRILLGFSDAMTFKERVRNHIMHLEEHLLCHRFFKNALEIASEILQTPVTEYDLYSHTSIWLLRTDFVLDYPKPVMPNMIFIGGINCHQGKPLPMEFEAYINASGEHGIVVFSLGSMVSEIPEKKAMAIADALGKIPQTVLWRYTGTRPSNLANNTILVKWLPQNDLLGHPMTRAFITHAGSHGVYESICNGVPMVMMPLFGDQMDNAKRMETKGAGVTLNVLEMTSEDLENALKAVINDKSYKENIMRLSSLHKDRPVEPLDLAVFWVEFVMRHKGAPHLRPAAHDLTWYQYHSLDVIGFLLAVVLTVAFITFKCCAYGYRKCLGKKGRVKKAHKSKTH
From the text: 4MU glucuronidation, HPLC of 4MUG, Dixon plot on UGT1A9

UGT2B15 = biological target: T3, UGT2B15 (Homo sapiens, UniProt P54855); experiment: 4MU glucuronidation, HPLC of 4MUG
T3 construct: Supersome recombinant human enzyme (Corning), microsomal preparation
T3 sequence (P54855 24-530): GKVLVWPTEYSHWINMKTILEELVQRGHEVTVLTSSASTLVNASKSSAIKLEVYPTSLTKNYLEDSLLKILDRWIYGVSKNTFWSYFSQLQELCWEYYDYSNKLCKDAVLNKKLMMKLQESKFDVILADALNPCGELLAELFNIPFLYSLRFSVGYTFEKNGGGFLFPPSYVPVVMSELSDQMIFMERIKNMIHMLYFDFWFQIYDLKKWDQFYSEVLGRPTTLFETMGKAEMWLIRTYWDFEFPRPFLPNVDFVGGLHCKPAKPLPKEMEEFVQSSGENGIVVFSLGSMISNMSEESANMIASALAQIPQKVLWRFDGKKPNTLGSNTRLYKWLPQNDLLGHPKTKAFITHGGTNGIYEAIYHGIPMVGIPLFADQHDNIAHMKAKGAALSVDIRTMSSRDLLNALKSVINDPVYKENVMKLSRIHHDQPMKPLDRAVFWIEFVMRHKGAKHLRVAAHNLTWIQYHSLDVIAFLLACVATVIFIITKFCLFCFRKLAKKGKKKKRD
From the text: 4MU glucuronidation, HPLC of 4MUG on UGT2B15

UGT1A3 [2] = biological target: T4, UGT1A3 (Homo sapiens, UniProt P35503); experiment: 4MU glucuronidation, HPLC of 4MUG
T4 construct: Supersome recombinant human enzyme (Corning), microsomal preparation
T4 sequence (P35503 29-534): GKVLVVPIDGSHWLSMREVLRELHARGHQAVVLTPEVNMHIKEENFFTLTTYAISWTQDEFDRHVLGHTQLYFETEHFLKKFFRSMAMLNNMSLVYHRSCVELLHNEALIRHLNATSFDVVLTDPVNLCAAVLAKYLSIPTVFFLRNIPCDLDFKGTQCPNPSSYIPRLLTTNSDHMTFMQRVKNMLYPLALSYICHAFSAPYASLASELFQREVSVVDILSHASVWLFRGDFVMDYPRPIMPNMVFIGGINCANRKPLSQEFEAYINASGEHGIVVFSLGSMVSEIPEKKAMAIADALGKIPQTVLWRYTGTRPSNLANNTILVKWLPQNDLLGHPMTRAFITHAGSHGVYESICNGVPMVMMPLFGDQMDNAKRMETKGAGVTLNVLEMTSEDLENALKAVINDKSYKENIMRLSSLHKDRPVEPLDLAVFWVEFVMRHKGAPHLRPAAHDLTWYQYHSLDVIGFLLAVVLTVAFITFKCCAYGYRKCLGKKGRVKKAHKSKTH
From the text: 4MU glucuronidation, HPLC of 4MUG on UGT1A3

UGT1A3 [3] = biological target: T4, UGT1A3; experiment: 4MU glucuronidation, HPLC of 4MUG, Dixon plot
From the text: 4MU glucuronidation, HPLC of 4MUG, Dixon plot on UGT1A3

UGT1A6 = biological target: T5, UGT1A6 (Homo sapiens, UniProt P19224); experiment: 4MU glucuronidation, HPLC of 4MUG
T5 construct: Supersome recombinant human enzyme (Corning), microsomal preparation
T5 sequence (P19224 27-532): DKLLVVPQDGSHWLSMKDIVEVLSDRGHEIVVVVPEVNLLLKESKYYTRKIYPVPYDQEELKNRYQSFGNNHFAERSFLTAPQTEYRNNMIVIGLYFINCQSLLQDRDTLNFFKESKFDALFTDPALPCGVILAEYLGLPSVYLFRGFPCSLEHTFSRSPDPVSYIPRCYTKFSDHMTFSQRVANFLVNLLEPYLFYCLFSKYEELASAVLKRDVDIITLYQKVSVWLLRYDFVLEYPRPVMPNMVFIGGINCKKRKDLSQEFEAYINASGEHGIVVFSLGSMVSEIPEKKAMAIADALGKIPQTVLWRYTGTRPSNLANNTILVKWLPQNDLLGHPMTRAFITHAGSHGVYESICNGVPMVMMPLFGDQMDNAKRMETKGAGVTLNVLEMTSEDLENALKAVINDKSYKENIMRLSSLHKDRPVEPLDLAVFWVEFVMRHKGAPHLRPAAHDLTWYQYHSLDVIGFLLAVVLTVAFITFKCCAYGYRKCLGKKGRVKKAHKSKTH
From the text: 4MU glucuronidation, HPLC of 4MUG on UGT1A6

UGT1A9 [4] = biological target: T2, UGT1A9; experiment: 4MU glucuronidation, HPLC of 4MUG
From the text: 4MU glucuronidation, HPLC of 4MUG on UGT1A9

UGT1A1 = biological target: T6, UGT1A1 (Homo sapiens, UniProt P22309); experiment: 4MU glucuronidation, HPLC of 4MUG
T6 construct: Supersome recombinant human enzyme (Corning), microsomal preparation
T6 sequence (P22309 26-533): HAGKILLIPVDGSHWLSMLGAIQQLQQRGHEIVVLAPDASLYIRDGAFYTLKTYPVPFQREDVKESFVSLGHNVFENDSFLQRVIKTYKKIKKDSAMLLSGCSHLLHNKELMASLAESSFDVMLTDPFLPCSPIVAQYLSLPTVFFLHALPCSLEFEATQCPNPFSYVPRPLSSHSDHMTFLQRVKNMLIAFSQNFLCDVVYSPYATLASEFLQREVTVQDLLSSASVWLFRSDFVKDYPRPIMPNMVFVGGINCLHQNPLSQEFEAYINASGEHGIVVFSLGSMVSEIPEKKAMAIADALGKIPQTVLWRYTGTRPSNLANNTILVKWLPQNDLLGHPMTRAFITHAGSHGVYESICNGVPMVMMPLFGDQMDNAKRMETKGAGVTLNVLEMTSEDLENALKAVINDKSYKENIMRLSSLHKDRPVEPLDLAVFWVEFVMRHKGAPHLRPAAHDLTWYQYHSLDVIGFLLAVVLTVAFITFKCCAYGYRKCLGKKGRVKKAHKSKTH
From the text: 4MU glucuronidation, HPLC of 4MUG on UGT1A1

With `CC[C@@H]1CN2CCc3c([nH]c4cccc(OC)c34)[C@@H]2C[C@@H]1/C(=C\OC)C(=O)OC` [mitragynine] the IC50 (UGT2B7) was > 200 µM, the Ki (UGT1A9 [1]) was 114 ± 13 µM and the IC50 (UGT2B15) was 152 ± 24 µM. It also gave an IC50 (UGT1A3 [2]) of 72 ± 0.16 µM, a Ki (UGT1A3 [3]) of 45 ± 1.3 µM and an IC50 (UGT1A6) of 121 ± 44 µM. The IC50 (UGT1A9 [4]) was 131 ± 11 µM and the IC50 (UGT1A1) was > 200 µM.
